Measured values from patent publication US20230285371A1 (THE SECOND XIANGYA HOSPITAL OF CENTRAL SOUTH UNIVERSITY, priority 2020, published 2023).
Where “and” joins values, the source holds several entries; their conditions need not be identical. Equal values may be shown once. Marks after values point to notes of the source that are not given here.

Columns and labels:
[1] = test system: female NOD mice (spontaneous type 1 diabetes); assay: Prevention of spontaneous type 1 diabetes in NOD mice; type: in vivo; settings: spontaneous T1D
Description: (§1) I. Materials and Methods • 1. Mice: The most widely used spontaneous type 1 diabetes mouse model for the study of type 1 diabetes—NOD mice were selected. Since the incidence rate of spontaneous type 1 diabetes in female NOD mice is much higher than that in male mice, female NOD mice were used for experiments in the present invention. The female NOD mice of the present invention were purchased from Shanghai Model Organisms Center, Inc. • 2. Preparation of medicine: Carboxymethylcellulose (CMC) was used as the solvent. […] Injection of cyclophosphamide: 300 mg/kg body weight of cyclophosphamide was injected into NOD mice so as to rapidly induce the onset of type 1 diabetes. • 5. Measurement of blood sugar: About 1 mm of the tail tip of the mice was cut off, the first drop of blood was wiped off with gauze, then the second drop of blood flew out naturally, which was drawn with a blood sugar test strip, and the reading was recorded. It can be diagnosed type 1 diabetes when two consecutive blood sugar readings were both >250 mg/dl. • 6. […] After 4 weeks of gavage, each mouse was injected with cyclophosphamide to induce the onset of type 1 diabetes, and the incidence rate of type 1 diabetes in the mice was observed and counted.

[2] = test system: STAT4 and p-STAT4; assay: STAT4 phosphorylation in IL-12-treated Naive CD4+ T cells, western blot; type: cell-based, C57BL/6J mice; settings: IL-12, 48 hours
Procedure: The cells were collected after 48 hours to extract proteins for western blot (WB) to detect the protein levels of STAT4 and p-STAT4.

[3] = test system: NOD mice (insulitis); settings: gavage once a day for 4 weeks from 8 weeks of age, nondiabetic mice, HE staining
[4] = test system: differentiation of Th1 cells induced by IL-12 (Naive CD4+ T cells); assay: In vitro inhibition assay: IL-12-induced Th1 differentiation, flow cytometry; type: cell-based, C57BL/6J mice; settings: for Th1 (%) Average / Th1 (%): IL-12, 48 hours; for Th1 (%) Average: average of 3 wells; for Th1 (%): individual parallel wells
Procedure: C57BL/6J mice were sacrificed, the spleen was taken and disrupted in PBS containing 2% fetal bovine serum (FBS). The cell suspension was filtered through a 70 μm nylon filter to remove tissue debris. The obtained cell suspension was centrifuged at 300 g for 10 min, and the cells were resuspended in PBS containing 2% fetal bovine serum (FBS) to maintain a cell concentration of 1×10^8 nucleated cells/mL. Naive CD4+ T cells were extracted with the EasySep™ Mouse Naive CD4+ T Cell Isolation Kit ([…] Technologies), and the extracted Naive CD4+ T cells were cultured in RPMI-1640 medium (Gibco) containing 10% fetal bovine serum (Gibco) and 1% penicillin/streptomycin (Gibco).
The cells were collected after 48 hours, and subjected to flow cytometry to detect the proportion of Th1 cells.

[5] = test system: female NOD mice (type 1 diabetes induced by cyclophosphamide); assay: Prevention of cyclophosphamide-induced type 1 diabetes in NOD mice; type: in vivo; settings: cyclophosphamide-induced T1D
Description: as §1

[6] = test system: Naive CD4+ T cells; assay: Cytotoxicity to T cells: cell count after 48 hours; type: cell-based, C57BL/6J mice
[7] = test system: Th1 cell marker genes (Tbet and IFNγ) and pro-inflammatory cytokines (IL-1β, IL-6 and TNF-α) in the pancreas; assay: Gene expression in pancreas of NOD mice, RT-PCR; type: in vivo
Description: (§2) From the age of 10 weeks, the mice were gavaged for 4 weeks, and injected with cyclophosphamide after the gavage for two weeks to induce the onset of the disease.

[8] = test system: CD4+ T cell subsets (Th1, Th2, Th17 and Treg) in the pancreas; assay: CD4+ T cell subsets in pancreas of NOD mice, flow cytometry; type: in vivo
Description: as §2

[9] = Sorafenib group vs solvent group
[10] = relative to vehicle, individual mice
[11] = gavage 4 weeks, cyclophosphamide after 2 weeks, individual values

## Sorafenib
[1]; 10 mg/kg gavage once a day for 12 weeks, day 98
  Survival rate (%): 91.30%
[1]; 10 mg/kg gavage once a day for 12 weeks, day 119
  Survival rate (%): 73.91%
[1]; 10 mg/kg gavage once a day for 12 weeks, day 140
  Survival rate (%): 65.22%
[1]; 10 mg/kg gavage once a day for 12 weeks, day 154
  Survival rate (%): 60.87%
[1]; 10 mg/kg gavage once a day for 12 weeks, day 168
  Survival rate (%): 52.17%
[1]; 10 mg/kg gavage once a day for 12 weeks, day 224, P<0.1 vs vehicle (25)
  Survival rate (%): 52.17^+ %
[1]; 10 mg/kg gavage once a day from 8 weeks of age for 12 weeks, n=23, day 0
  Survival rate (%): 100%
[1]; at 32 weeks of age, CMC group 75%
  incidence rate of type 1 diabetes: 48%
[2]
  effect on phosphorylation of STAT4: can inhibit the phosphorylation of STAT4
[3]
  insulitis compared with the CMC group: significantly improved
[4]; 0, 1, 2, 4 μg/ml, 48 hours
  effect on IL-12-induced Th1 differentiation: inhibit IL-12-induced Th1 differentiation in a dose-dependent manner
[4]; Sorafenib 1 μg/ml, 0 μg/ml control 85.27
  Th1 (%) Average: 80.43%
[4]; Sorafenib 1 μg/ml
  Th1 (%): 77.9% and 76% and 87.4%
[4]; Sorafenib 2 μg/ml, P<0.01 vs 0 μg/ml
  Th1 (%) Average: 68.53** %
[4]; Sorafenib 2 μg/ml
  Th1 (%): 67.8% and 68.5% and 69.3%
[4]; Sorafenib 4 μg/ml, P<0.001 vs 0 μg/ml
  Th1 (%) Average: 15.66*** %
[4]; Sorafenib 4 μg/ml
  Th1 (%): 24.9% and 12.9% and 9.17%
[5]; 10 mg/kg gavage for 7 weeks, day 105
  Survival rate (%): 94.12%
[5]; 10 mg/kg gavage for 7 weeks, day 112
  Survival rate (%): 88.24%
[5]; 10 mg/kg gavage for 7 weeks, day 119
  Survival rate (%): 82.35%
[5]; 10 mg/kg gavage for 7 weeks, day 126
  Survival rate (%): 76.47%
[5]; 10 mg/kg gavage for 7 weeks, day 140, P<0.05 vs vehicle (35.71)
  Survival rate (%): 76.47* %
[5]; 10 mg/kg gavage once a day from 8 weeks of age for 7 weeks, cyclophosphamide 300 mg/kg after 4 weeks, n=17, day 0
  Survival rate (%): 100%
[5]; gavage stopped after 7 weeks
  preventive effect still existed after the gavage was stopped, lasted to: 20 weeks
[5]; more than half of the CMC group developed T1D
  incidence rate of type 1 diabetes: 24%
[6]; Sorafenib 1 μg/ml, 0 μg/ml control 9.47
  Th0 (×10^4) Average: 9.33 ×10^4
[6]; Sorafenib 2 μg/ml
  Th0 (×10^4) Average: 8.1 ×10^4
[6]; Sorafenib 4 μg/ml
  Th0 (×10^4) Average: 8 ×10^4
[7]; P<0.05 vs vehicle (1)
  IFNγ gene expression level in pancreas, Average: 0.27*
  Il-1β gene expression level in pancreas, Average: 0.37*
  TNFα gene expression level in pancreas, Average: 0.27*
[7]; P<0.1 vs vehicle (1.04)
  Tbet gene expression level in pancreas, Average: 0.44^+
[7]; [9]
  gene expression levels of Th1 cell marker genes (Tbet and IFNγ) and pro-inflammatory cytokines (IL-1β, IL-6 and TNF-α) in the pancreas: significantly reduced
[7]; [10]
  IFNγ gene expression level in pancreas: 0.16 and 0.07 and 0.58
  IL-6 gene expression level in pancreas: 0.64 and 0.12
  Il-1β gene expression level in pancreas: 0.48 and 0.18 and 0.46
  TNFα gene expression level in pancreas: 0.18 and 0.07 and 0.55
  Tbet gene expression level in pancreas: 0.27 and 0.2 and 0.86
[7]; vehicle 1
  IL-6 gene expression level in pancreas, Average: 0.38
[8]; [9]
  proportion of Th1 cells in the pancreas: significantly reduced
  proportions of other T cell subsets in the pancreas: remained unchanged
[8]; gavage 4 weeks from 10 weeks of age, cyclophosphamide after 2 weeks, individual values
  Th1 (%) in pancreas: 6.63% and 3.58%
[8]; gavage 4 weeks, cyclophosphamide after 2 weeks, P<0.05 vs vehicle (21.2)
  Th1 (%) in pancreas, Average: 5.11* %
[8]; [11]
  Th2 (%) in pancreas: 9.75% and 12.9% and 7.91%
  Th17 (%) in pancreas: 3.28% and 0.68% and 1.19%
  Tregs (%) in pancreas: 4.6% and 4.31% and 2.25% and 4.37%
[8]; gavage 4 weeks, cyclophosphamide after 2 weeks, vehicle 1.31
  Th17 (%) in pancreas, Average: 1.72%
[8]; gavage 4 weeks, cyclophosphamide after 2 weeks, vehicle 4.345
  Tregs (%) in pancreas, Average: 3.88%
[8]; gavage 4 weeks, cyclophosphamide after 2 weeks, vehicle 9.45
  Th2 (%) in pancreas, Average: 10.19%
